Measurements: patent US20260053811A1, “METHODS OF TREATING HYPERTENSION IN OBESE SUBJECTS” (Mineralys Therapeutics, Inc., priority 2022, published 2026)
Like-named read-outs stand apart in the source and are kept apart here.

How the values were obtained:
Assay type in all cases: in vivo, human
[1] = Pharmacokinetics (plasma Cmax, AUC, Tmax, t1/2, trough concentrations); settings: for Tmax: read-out: Tmax, Median
Source text: Pharmacokinetic endpoints of this study are PK parameters, including, of area under the plasma concentration versus time curve (AUC), maximum plasma concentration (Cmax), time to maximum concentration (Tmax), and half-life (t1/2) will be summarized descriptively for Randomization (baseline) and Study Weeks 1, 4, and 8
(§1) PK/PD Analysis Set includes all subjects in the SAF who have sufficient data available for the analysis of pharmacokinetic and pharmacodynamic measurements. In the analyses based on PKPD, subjects will be analyzed according to the actual treatment received.

[2] = test system: plasma renin activity; assay: Plasma renin activity (PRA) (pharmacodynamic response); settings: for Renin Activity, Mean (SD) Observed / Renin Activity, Mean (SD) Percent Change from Baseline: Part 1; for Renin Activity, Mean Observed / Renin Activity, Mean Percent Change from Baseline: Part 2
Source text: as §1

[3] = test system: serum aldosterone; assay: Serum aldosterone (pharmacodynamic response); settings: for Reduction in median serum aldosterone compared to baseline: week 4, low renin subjects (Part-1); for Aldosterone levels, change relative to baseline, range across active arms / Aldosterone, Mean (SD) Observed / Aldosterone, Mean (SD) Percent Change from Baseline: Part 1; for Aldosterone, Mean Observed / Aldosterone, Mean Percent Change from Baseline: Part 2
Source text: as §1

[4] = test system: hypertensive subjects; assay: Serum sodium; settings: active treatment cohorts; Parts 1 and 2
[5] = steady state Day 28, 12.5 mg BID

## CC(=O)N[C@H]1CC[C@H](NC(=O)CN2CCN(c3nncc(-c4ccc(C)cc4)n3)CC2)CC1 [Compound A HBr]
[1]; human, plasma, oral, 100 mg, Day 56, 100 mg QD Part 2, read-out: Trough Plasma Concentration, Median
  concentration at 56 day: 20 ng/mL
[1]; human, plasma, oral, 100 mg, steady state Day 28, 100 mg QD Part 1, read-out: AUC0-24, Geo Mean
  AUC(0-t): 10400 ng·h/mL
[1]; human, plasma, oral, 100 mg, steady state Day 28, 100 mg QD Part 1, read-out: AUC0-24, Mean (SD)
  AUC(0-t): 14900 ng·h/mL
[1]; human, plasma, oral, 100 mg, steady state Day 28, 100 mg QD Part 1, read-out: AUC0-24, Median
  AUC(0-t): 15000 ng·h/mL
[1]; human, plasma, oral, 100 mg, steady state Day 28, 100 mg QD Part 1, read-out: Cmax, Geo Mean
  Cmax: 1370 ng/mL
[1]; human, plasma, oral, 100 mg, steady state Day 28, 100 mg QD Part 1, read-out: Cmax, Mean (SD)
  Cmax: 1620 ng/mL
[1]; human, plasma, oral, 100 mg, steady state Day 28, 100 mg QD Part 1, read-out: Cmax, Median
  Cmax: 1590 ng/mL
[1]; human, plasma, oral, 100 mg, steady state Day 28, 100 mg QD Part 2, read-out: AUC0-24, Geo Mean
  AUC(0-t): 6920 ng·h/mL
[1]; human, plasma, oral, 100 mg, steady state Day 28, 100 mg QD Part 2, read-out: AUC0-24, Mean (SD)
  AUC(0-t): 7480 ng·h/mL
[1]; human, plasma, oral, 100 mg, steady state Day 28, 100 mg QD Part 2, read-out: AUC0-24, Median
  AUC(0-t): 7090 ng·h/mL
[1]; human, plasma, oral, 100 mg, steady state Day 28, 100 mg QD Part 2, read-out: Cmax, Geo Mean
  Cmax: 1000 ng/mL
[1]; human, plasma, oral, 100 mg, steady state Day 28, 100 mg QD Part 2, read-out: Cmax, Mean (SD)
  Cmax: 1360 ng/mL
[1]; human, plasma, oral, 100 mg, steady state Day 28, 100 mg QD Part 2, read-out: Cmax, Median
  Cmax: 1250 ng/mL
[1]; human, plasma, oral, steady state Day 28, 12.5 mg QD
  Tmax: 1.08 h
[1]; human, plasma, oral, steady state Day 28, 50 mg QD
  Tmax: 2.01 h
[1]; [5]
  Cmax, Geo Mean: 140 ng/mL
  Cmax, Mean (SD): 142 (28.3) ng/ml
[1]; steady state Day 28, 25 mg BID
  Cmax, Mean (SD): 361 (175) ng/ml
[1]; steady state Day 28, 100 mg QD Part 1
  Tmax, Median: 1.02 h
[1]; steady state Day 28, 100 mg QD Part 2
  Tmax, Median: 1 h
[2]; Wk 4, 12.5 mg BID
  Renin Activity, Mean (SD) Observed: 5.989 (11.272) μg/L/hr
  Renin Activity, Mean (SD) Percent Change from Baseline: 838.89 (2411.4) %
[2]; Wk 4, 12.5 mg QD
  Renin Activity, Mean (SD) Observed: 1.804 (3.565) μg/L/hr
  Renin Activity, Mean (SD) Percent Change from Baseline: 85.09 (291.65) %
[2]; Wk 4, 25 mg BID
  Renin Activity, Mean (SD) Observed: 2.860 (4.219) μg/L/hr
  Renin Activity, Mean (SD) Percent Change from Baseline: 344.07 (480.75) %
[2]; Wk 4, 50 mg QD
  Renin Activity, Mean (SD) Observed: 3.940 (9.162) μg/L/hr
  Renin Activity, Mean (SD) Percent Change from Baseline: 359.69 (888.86) %
[2]; Wk 4, 100 mg QD
  Renin Activity, Mean (SD) Observed: 3.870 (6.308) μg/L/hr
  Renin Activity, Mean (SD) Percent Change from Baseline: 489.18 (974.60) %
  Renin Activity, Mean Observed: 12.642 µg/L/h
  Renin Activity, Mean Percent Change from Baseline: 811.54%
[2]; Wk 12, 12.5 mg BID
  Renin Activity, Mean (SD) Observed: 5.118 (11.751) μg/L/hr
  Renin Activity, Mean (SD) Percent Change from Baseline: 212.37 (402.15) %
[2]; Wk 12, 12.5 mg QD
  Renin Activity, Mean (SD) Observed: 2.429 (5.048) μg/L/hr
  Renin Activity, Mean (SD) Percent Change from Baseline: 137.45 (279.23) %
[2]; Wk 12, 25 mg BID
  Renin Activity, Mean (SD) Observed: 2.898 (8.323) μg/L/hr
  Renin Activity, Mean (SD) Percent Change from Baseline: 198.91 (423.17) %
[2]; Wk 12, 50 mg QD
  Renin Activity, Mean (SD) Observed: 3.374 (7.008) μg/L/hr
  Renin Activity, Mean (SD) Percent Change from Baseline: 400.07 (808.60) %
[2]; Wk 12, 100 mg QD
  Renin Activity, Mean (SD) Observed: 1.653 (2.830) μg/L/hr
  Renin Activity, Mean (SD) Percent Change from Baseline: 94.66 (221.58) %
[2]; Wk 10, 100 mg QD
  Renin Activity, Mean Observed: 7.602 µg/L/h
  Renin Activity, Mean Percent Change from Baseline: 192.62%
[2]; across doses
  Plasma renin activity, pharmacodynamic response: commensurate increase in plasma renin activity
[2]; irrespective of dose and baseline PRA, highest at Week 4
  Renin activity, percent change from baseline: increased in all subjects treated with lorundrostat
[3]; 25 mg BID
  Reduction in median serum aldosterone compared to baseline: 9.6%
[3]; 50 mg QD
  Reduction in median serum aldosterone compared to baseline: 65.2%
[3]; 100 mg QD
  Reduction in median serum aldosterone compared to baseline: 70.0%
[3]; Week 4
  Aldosterone levels, change relative to baseline, range across active arms: −40.1% to 7.4%
[3]; Week 12
  Aldosterone levels, change relative to baseline, range across active arms: −26.6% to 15.9%
[3]; Wk 4, 12.5 mg BID
  Aldosterone, Mean (SD) Observed: 4.447 (3.681) ng/dL
  Aldosterone, Mean (SD) Percent Change from Baseline: −37.86 (35.66) %
[3]; Wk 4, 12.5 mg QD
  Aldosterone, Mean (SD) Observed: 6.132 (4.606) ng/dL
  Aldosterone, Mean (SD) Percent Change from Baseline: 7.39 (91.87) %
[3]; Wk 4, 25 mg BID
  Aldosterone, Mean (SD) Observed: 3.192 (3.274) ng/dL
  Aldosterone, Mean (SD) Percent Change from Baseline: 1.66 (233.60) %
[3]; Wk 4, 50 mg QD
  Aldosterone, Mean (SD) Observed: 3.923 (5.283) ng/dL
  Aldosterone, Mean (SD) Percent Change from Baseline: −40.06 (70.25) %
[3]; Wk 4, 100 mg QD
  Aldosterone, Mean (SD) Observed: 4.000 (4.252) ng/dL
  Aldosterone, Mean (SD) Percent Change from Baseline: −32.18 (75.13) %
  Aldosterone, Mean Observed: 5.060 ng/dL
  Aldosterone, Mean Percent Change from Baseline: −6.05%
[3]; Wk 12, 12.5 mg BID
  Aldosterone, Mean (SD) Observed: 6.765 (4.085) ng/dL
  Aldosterone, Mean (SD) Percent Change from Baseline: 1.97 (66.85) %
[3]; Wk 12, 12.5 mg QD
  Aldosterone, Mean (SD) Observed: 6.833 (4.743) ng/dL
  Aldosterone, Mean (SD) Percent Change from Baseline: 15.91 (67.68) %
[3]; Wk 12, 25 mg BID
  Aldosterone, Mean (SD) Observed: 4.983 (3.432) ng/dL
  Aldosterone, Mean (SD) Percent Change from Baseline: −10.10 (66.83) %
[3]; Wk 12, 50 mg QD
  Aldosterone, Mean (SD) Observed: 5.385 (4.087) ng/dL
  Aldosterone, Mean (SD) Percent Change from Baseline: −3.75 (56.02) %
[3]; Wk 12, 100 mg QD
  Aldosterone, Mean (SD) Observed: 4.563 (2.868) ng/dL
  Aldosterone, Mean (SD) Percent Change from Baseline: −26.56 (37.55) %
[3]; Wk 10, 100 mg QD
  Aldosterone, Mean Observed: 4.929 ng/dL
  Aldosterone, Mean Percent Change from Baseline: −4.06%
[3]; across doses
  Serum aldosterone levels, pharmacodynamic response: dose-dependent reduction in serum aldosterone levels
[4]
  Serum sodium levels: decreased
